# Structures can show the parent of a compound that is named as a salt.
# Assays:
# [1] = Electrical conductivity of clay dispersions and drug solutions; format: physicochemical; conditions: for Conductivity, Mean / Conductivity, Trial 1 / Conductivity, Trial 2 / Conductivity, Trial 3 / pH, Mean / pH, Trial 1 / pH, Trial 2 / pH, Trial 3: dispersions
# [2] = pH 3
# Description: (§1) Into 10 mL of drug solution (containing 25 mg of tramadol HCl), 50 mg of talc was added and vortexed for 5 seconds followed by centrifugation @1500 rpm for 5 minutes. The solution was filtered through a 0.2 μm syringe filter; 0.5 ml of the supernatant solution was diluted with 10 ml of solvent, and then analyzed for drug concentration by UV spectroscopy @271 nm.
# as §1, with “zinc acetate” for “talc”
# The solution was filtered through a 0.2 μm syringe filter; 0.5 ml of the supernatant solution was diluted with 10 ml of solvent, and then analyzed for drug concentration by UV spectroscopy @271 nm.
SMILES,"Conductivity, Mean [1] [mV]","Conductivity, Trial 1 [1] [mV]","Conductivity, Trial 2 [1] [mV]","Conductivity, Trial 3 [1] [mV]","pH, Mean [1]","pH, Trial 1 [1]","pH, Trial 2 [1]","pH, Trial 3 [1]",% Bound [2] [%],"Cond. ([1]; drug solution in 0.1N HCl, 100 μg/mL) [mV]","Cond. ([1]; drug solution in 0.1N HCl, 200 μg/mL) [mV]","Cond. ([1]; drug solution in 0.1N HCl, 250 μg/mL) [mV]","Cond. ([1]; drug solution in 0.1N HCl, 500 μg/mL) [mV]","Cond. ([1]; drug solution in 0.1N HCl, 1000 μg/mL) [mV]","Cond. ([1]; drug solution in ultrapure deionized water, 100 μg/mL) [mV]","Cond. ([1]; drug solution in ultrapure deionized water, 200 μg/mL) [mV]","Cond. ([1]; drug solution in ultrapure deionized water, 250 μg/mL) [mV]","Cond. ([1]; drug solution in ultrapure deionized water, 500 μg/mL) [mV]","Cond. ([1]; drug solution in ultrapure deionized water, 1000 μg/mL) [mV]"
O=C([O-])[O-].[Na+].[Na+] [Na2CO3],−247.7,−247.4,−248.3,−247.5,11.40,11.40,11.42,11.40,–,–,–,–,–,–,–,–,–,–,–
[Cl-].[Na+] [NaCl],40.3,34.7,33.6,52.6,6.38,6.48,6.50,6.16,–,–,–,–,–,–,–,–,–,–,–
CC(=O)[O-].CC(=O)[O-].[Zn+2] [Zinc Acetate],–,–,–,–,–,–,–,–,2.9,–,–,–,–,–,–,–,–,–,–
CN(C)CCOC(c1ccccc1)c1ccccc1 [diphenhydramine HCl],–,–,–,–,–,–,–,–,–,334.4,333.5,333.2,333.7,332.1,28.2,24.5,21.3,21.3,31.3
